We go through 1 compound from paper PMC3531252 (EJNMMI Research, 2012).

In experiment [1] the target is T1, GlyT1 (Homo sapiens, UniProt P48067).
T1 construct: whole-hemisphere autoradiography (ARG) on human brain slices; from tissue; host or cells: post-mortem human brain whole-hemisphere cryosections
T1 sequence (P48067 1-706): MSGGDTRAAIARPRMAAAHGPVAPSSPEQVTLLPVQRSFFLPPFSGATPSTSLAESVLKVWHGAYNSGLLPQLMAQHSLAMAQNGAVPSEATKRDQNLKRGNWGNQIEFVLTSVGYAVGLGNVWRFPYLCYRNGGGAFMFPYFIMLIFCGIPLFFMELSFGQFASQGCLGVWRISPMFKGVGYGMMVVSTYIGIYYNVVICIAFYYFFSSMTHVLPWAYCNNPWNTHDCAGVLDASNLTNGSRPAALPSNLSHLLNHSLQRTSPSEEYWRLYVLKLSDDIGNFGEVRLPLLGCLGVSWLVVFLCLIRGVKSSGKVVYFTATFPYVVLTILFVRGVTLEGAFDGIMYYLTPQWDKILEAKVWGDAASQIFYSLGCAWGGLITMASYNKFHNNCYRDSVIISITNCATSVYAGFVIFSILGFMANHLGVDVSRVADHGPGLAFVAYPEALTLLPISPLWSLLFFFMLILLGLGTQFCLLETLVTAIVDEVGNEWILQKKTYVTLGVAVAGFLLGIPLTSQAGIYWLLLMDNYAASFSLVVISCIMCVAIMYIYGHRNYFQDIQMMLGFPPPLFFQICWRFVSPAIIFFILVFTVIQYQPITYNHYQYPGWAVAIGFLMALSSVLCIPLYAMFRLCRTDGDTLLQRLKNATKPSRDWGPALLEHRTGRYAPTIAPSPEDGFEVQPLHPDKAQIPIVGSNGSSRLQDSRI
In words: in vitro whole-hemisphere autoradiography on human brain slices. The class given is binding. The note with it: blocker 10 μM.
Description: Human brains without pathology were obtained from the National Institute of Forensic Medicine, Karolinska Institutet (Stockholm, Sweden) as well as from the Department of Forensic and Insurance Medicine, Semmelweis University, Budapest. […] The sectioning of the brains and the autoradiography experiments were performed at the Department of Clinical Neuroscience, Karolinska Institutet. The cryosectioning took place on a Leica cryomacrocut system (San Marcos, CA, USA) [28, 29]. Horizontal sections (100 μm thick, containing cerebral cortex, white matter, cerebellum, and pons) and coronal sections (100 μm thick, containing cerebral cortex, white matter, putamen, and caudate nucleus) were used. […] For comparison with other GlyT1 radioligands, blocking was also made with SSR504734 (10 μM). The slices were rinsed thrice for 3 min each with cold (5°C) washing buffer (120 mM NaCl, 50 mM Tris–HCl, pH = 7.5) and subsequently dipped into cold water. The slides were then placed on an imaging plate (Fujifilm Plate BAS-TR2025, Fujifilm, Tokyo, Japan) for 20 min. The plates were developed, and the resulting images were processed in a Fujifilm BAS-5000 phosphorimager (Fujifilm, Tokyo, Japan). […] The autoradiography (ARG) signal's optical density was measured using Multi Gauge 3.2 image analysis software (Fujifilm, Tokyo, Japan).

Experiment [2] deals with GlyT1. The experiment in a line: GlyT1 occupancy and VND by Lassen plot, PET in rhesus monkeys. As to conditions: for GlyT1 occupancy: seven regions. The class given is in vivo, rhesus monkey. How it is done: PET measurements were performed for 123 min immediately after i.v. injection of radioligand at baseline and after pretreatment with SSR504734. SSR504734 was administered over 15 min, starting 30 min before the radioligand injection. PET measurements were performed on two separate days with two monkeys. One baseline PET measurement and one PET measurement after pretreatment with 1.5 mg/kg of SSR504734 were performed on one monkey. One baseline PET measurement and one PET measurement after pretreatment with 4.5 mg/kg were performed on the other monkey.
GlyT1 occupancy was estimated by applying Lassen plot approach, which can determine nondisplaceable distribution volume (VND) and occupancy using VT values at baseline and after pretreatment. Seven regions (the pons, cerebellum, putamen, frontal cortex, caudate, anterior cingulate cortex, and temporal cortex) were used for the plot.

“And” between values parts separate entries of the source, which are not always exact repeats. Equal entries are not always repeated.

For the compound `O=C(N[C@@H](c1ccccc1)[C@@H]1CCCCN1)c1cccc(C(F)(F)F)c1Cl` [SSR504734, reference compound], the “reduction of [11C]N-methyl-SSR504734 binding by blocker” value at GlyT1 [1] is “prominent in the white matter and pons”. For the same compound, the GlyT1 occupancy is 45% and 45.2% in the experiment on GlyT1 [2] (1.5 mg/kg SSR504734, rhesus monkey 1, Lassen plot); 74.3% in the experiment on GlyT1 [2] (4.5 mg/kg SSR504734, rhesus monkey 2, Lassen plot). In the experiment on GlyT1 [2] (Omax assumed 100%), the “Kd of occupancy-dose relationship” value worked out at 1.7 mg/kg.
